Experimental data: patent publication US10016382B2, “Method for decreasing skeletal muscle damage and/or oxidative stress in mammals” (LONZA INC., priority 2014, dated 2018)
Marks after values point to notes of the source that are not given here.

Columns and labels:
[1] = test system: Labrador Retrievers; assay: Activity (APM, APM/kg) by Actical monitor and GPS collar, Example 2 part one; assay type: in vivo, dog; conditions: for APM / APM/kg: crossover L-carnitine dogs
From the text: Both the L-carnitine and control performance dogs were put through a weekly running program consisting of two evenly distributed endurance runs. Groups ranging between 6 and 10 dogs were run together, including both treatments in each group. The endurance runs increased incrementally by 0.5 miles per week (5 miles/session increasing to 10 miles per session over an 11 week period). The dogs were allowed a 1 day rest between runs and a 3 day rest before a scheduled exercise distance increase. The dogs were put through maintenance runs of 5 miles twice in the 12th week and then 2 miles twice in the 13th week. All dogs had at least 4 days of rest prior to the final 15 miles run in the 14th week. The first exercise session during the week consisted only of endurance style running, while the second session included short 100 m sprints at each mile interval in order to incorporate measurable anaerobic exercise into the weekly regimen. The endurance runs were slightly slower to enhance fat oxidation and represent an exercise intensity equivalent to 50%-65% VO2 max. Each performance dog wore the Actical activity monitor and GPS tracking collar during the last 15 mile endurance run. The final run was conducted in a manner analogous to that of Example 1. All activity was accurately and precisely calculated using the GPS tracking monitors. Immediately following the 15 mile endurance run, each dog was placed in a kennel and evaluated for recovery time in body temperature (every 15 minutes for 2 hours) and heart rate (every 2 minutes for up to 20 minutes until basal beats per minute (BPM) was reached). Body temperature and heart rate were measured as described in Example 1.

[2] = test system: skeletal muscle; assay: Fractional breakdown rate (FBR) of skeletal muscle, 3-methylhistidine, Example 2 part two; assay type: in vivo, dog; conditions: for FBR: run, muscle samples
From the text: Twenty-six Labrador Retrievers ranging in age from 1.5 to 4.5 years were chosen from part one of the study and were fed for an additional 60 days following the termination of part one of the study. Test dogs remained in their previous treatment groups. Measurements on Actical movements/kg BW/mile endurance runs obtained during part one of the study were utilized to ensure that both the control and the L-carnitine groups were equal for performance potential. The lean body mass of the test dogs was determined by scanning with the DEXA as an additional measure for ensuring equal groups. Twelve dogs (6 males and 6 females) were assigned to each treatment group. Two additional dogs (1 male and 1 female) were fed the low carnitine basal diet of the control group and were used as controls that were not enriched with isotopes during the study; these two control dogs were used to measure the natural amount of 15N Phe in the sample. During the 60 day trial, the test dogs were fed low-carnitine basal diets with or without L-carnitine supplementation in a manner analogous to that of part one of the study. For three days prior to the final muscle biopsy and blood collection, all test dogs were feed an “all vegetarian plus egg” diet from Purina LabDiet that had nutrient specifications that were equivalent to that of the low carnitine basal diet. […] At the end of the 60 day training program, 24 of the dogs (12 resting and 12 running) were infused with a bolus dose of 15N Phe. […] Forty-five minutes after infusion, a 5 mm Bergstrom muscle biopsy needle was used to take a biopsy of the biceps femoris muscle. The muscle samples were quickly frozen in liquid nitrogen and placed in a −80° C. freezer for later analysis]. Twenty-four hours after the resting dogs were infused with 15N Phe, the remaining 12 dogs (6 non-carnitine; 3 male and 3 female and 6 L-carnitine; 3 male and 3 female) were run for a 15 mile endurance run. Following a 30 minute period of measured physiological recovery (heart rate and body temperature), test dogs that completed the 15 mile run were infused with a 2% 15N Phe solution as described above; muscle biopsies were taken 45 minutes after infusion. Blood samples were taken from the carotid artery for each test dog and analyzed for 3 MH. Three days prior to taking the blood samples, the dogs were fed the “all vegetable plus egg” non-meat diet from Purina LabDiet to ensure that the 3 MH found in the blood represented the skeletal muscle protein breakdown. To process the samples, the acid-soluble fraction containing free amino acids was removed by addition of 2% (w/v) perchloric acid. After homogenization, samples were centrifuged at 3,000×g, and the supernatant, containing free amino acids, was removed. The protein precipitate was washed three times with 2% perchloric acid before being hydrolyzed in 6N HCL. The supernatant and precipitate, respectively, were then run through an ion-exchange column packed with Dowex 50WX8-200. Phenylalanine and 3-methylhistidine (3-MH) were eluted with 2 mL of 4N NH4OH and 1 mL of nanopure H2O into a new vial and then dried under vacuum. The tert-butyldimethylsilyl (tBDMS) derivative was formed by adding 800 μL of C2CH3CN-MTBSTFA (1:1) and incubating at 110° C. for 60 minutes. The same mass spectrometer was used to determine 3-MH. […] The 238 m/z fragment of 3-MH was monitored. The muscle samples were analyzed for the fractional breakdown rate (FBR). FBR was calculated as kd=3-MH daily excretion/3-MH muscle pool×100. […]

[3] = Ex.2 part one, 250 mg/d, 19 L-carnitine dogs that were control dogs in Example 1
[4] = data collected in Example 1 (then control dogs)

SMILES: C[N+](C)(C)C[C@H](O)CC(=O)[O-] [L-carnitine]
- Crossover activity gain, APM [1, 3]: 27,697
- Crossover activity gain, APM/kg [1, 3]: 975
- APM ([1]; Example 2 part one, 250 mg/d): 63,272
- APM/kg ([1]; Example 2 part one, 250 mg/d): 2274
- APM [1, 4]: 37,621
- APM/kg [1, 4]: 1363
- Fractional Breakdown Rate (FBR) of muscle samples ([2]; Ex.2 part two, 250 mg/d, adjusted for gender and exercise state): 1.92%
- FBR (% protein breakdown rate/day) of skeletal muscle ([2]; Ex.2 part two, 250 mg/d, exercised females (15 mile endurance run)): 3.26%
- FBR of skeletal proteins ([2]; Ex.2 part two, 250 mg/d, running males): 1.26%
- FBR ([2]; Female): 3.26^a %
- FBR ([2]; Male): 1.26^a %
